Experimental data as given in article PMC6691788, “Design and synthesis of phthalazine-based compounds as potent anticancer agents with potential antiangiogenic activity via VEGFR-2 inhibition” (Journal of Enzyme Inhibition and Medicinal Chemistry, 2019).

How the values were obtained:
MCF7 = assay: NCI 60 cell panel SRB screen; type: cell-based; conditions: Homo sapiens; for activity at 10 µM: MCF7, read-out: percent cell growth promotion
NCI-H522 = assay: NCI 60 cell panel SRB screen; type: cell-based; conditions: Homo sapiens; for activity at 10 µM: NCI-H522, single dose 10 μM, read-out: percent cell growth promotion
IGROV1 = assay: NCI 60 cell panel SRB screen; type: cell-based; conditions: Homo sapiens, IGROV-1; for activity at 10 µM: IGROV1, single dose 10 μM, read-out: percent cell growth promotion
MDA-MB-435 = assay: NCI 60 cell panel SRB screen; type: cell-based; conditions: Homo sapiens; for activity at 10 µM: MDA-MB-435, read-out: percent cell growth promotion
CAKI-1 = assay: NCI 60 cell panel SRB screen; type: cell-based, human; conditions: Homo sapiens; CAKI-1, single dose 10 μM; read-out: percent cell growth promotion
BT-549 = assay: NCI 60 cell panel SRB screen; type: cell-based; conditions: Homo sapiens; for activity at 10 µM: BT-549, read-out: percent cell growth promotion
MDA-MB 231/ATCC = assay: NCI 60 cell panel SRB screen; type: cell-based; conditions: Homo sapiens; for activity at 10 µM: MDA-MB-231, read-out: percent cell growth promotion
K-562 = assay: NCI 60 cell panel SRB screen; type: cell-based; conditions: Homo sapiens, K562; for activity at 10 µM: K-562, single dose 10 μM, read-out: percent cell growth promotion
T-47D = assay: NCI 60 cell panel SRB screen; type: cell-based; conditions: Homo sapiens, T47D; for activity at 10 µM: read-out: percent cell growth promotion
UACC-257 = assay: NCI 60 cell panel SRB screen; type: cell-based; conditions: Homo sapiens; for activity at 10 µM: UACC-257, read-out: percent cell growth promotion
HL-60(TB) = assay: NCI 60 cell panel SRB screen; type: cell-based; conditions: Homo sapiens; for activity at 10 µM: single dose 10 μM, read-out: percent cell growth promotion
HT29 = assay: NCI 60 cell panel SRB screen; type: cell-based; conditions: Homo sapiens, HT-29; for activity at 10 µM: HT29, single dose 10 μM, read-out: percent cell growth promotion
MOLT-4 = assay: NCI 60 cell panel SRB screen; type: cell-based; conditions: Homo sapiens; for activity at 10 µM: MOLT-4, single dose 10 μM, read-out: percent cell growth promotion
DU-145 = assay: NCI 60 cell panel SRB screen; type: cell-based; conditions: Homo sapiens; for activity at 10 µM: DU-145, single dose 10 μM, read-out: percent cell growth promotion
VEGFR-2 tyrosine kinase = biological target: T1, VEGFR-2 tyrosine kinase (Homo sapiens, UniProt P35968); assay: In vitro VEGFR-2 tyrosine kinase assay (BPS Bioscience); type: biochemical; conditions: read-out: VEGFR-2 % inhibition; 10 μM concentration
T1 construct: purchased BPS Bioscience 40301
T1 sequence (P35968 20-1356): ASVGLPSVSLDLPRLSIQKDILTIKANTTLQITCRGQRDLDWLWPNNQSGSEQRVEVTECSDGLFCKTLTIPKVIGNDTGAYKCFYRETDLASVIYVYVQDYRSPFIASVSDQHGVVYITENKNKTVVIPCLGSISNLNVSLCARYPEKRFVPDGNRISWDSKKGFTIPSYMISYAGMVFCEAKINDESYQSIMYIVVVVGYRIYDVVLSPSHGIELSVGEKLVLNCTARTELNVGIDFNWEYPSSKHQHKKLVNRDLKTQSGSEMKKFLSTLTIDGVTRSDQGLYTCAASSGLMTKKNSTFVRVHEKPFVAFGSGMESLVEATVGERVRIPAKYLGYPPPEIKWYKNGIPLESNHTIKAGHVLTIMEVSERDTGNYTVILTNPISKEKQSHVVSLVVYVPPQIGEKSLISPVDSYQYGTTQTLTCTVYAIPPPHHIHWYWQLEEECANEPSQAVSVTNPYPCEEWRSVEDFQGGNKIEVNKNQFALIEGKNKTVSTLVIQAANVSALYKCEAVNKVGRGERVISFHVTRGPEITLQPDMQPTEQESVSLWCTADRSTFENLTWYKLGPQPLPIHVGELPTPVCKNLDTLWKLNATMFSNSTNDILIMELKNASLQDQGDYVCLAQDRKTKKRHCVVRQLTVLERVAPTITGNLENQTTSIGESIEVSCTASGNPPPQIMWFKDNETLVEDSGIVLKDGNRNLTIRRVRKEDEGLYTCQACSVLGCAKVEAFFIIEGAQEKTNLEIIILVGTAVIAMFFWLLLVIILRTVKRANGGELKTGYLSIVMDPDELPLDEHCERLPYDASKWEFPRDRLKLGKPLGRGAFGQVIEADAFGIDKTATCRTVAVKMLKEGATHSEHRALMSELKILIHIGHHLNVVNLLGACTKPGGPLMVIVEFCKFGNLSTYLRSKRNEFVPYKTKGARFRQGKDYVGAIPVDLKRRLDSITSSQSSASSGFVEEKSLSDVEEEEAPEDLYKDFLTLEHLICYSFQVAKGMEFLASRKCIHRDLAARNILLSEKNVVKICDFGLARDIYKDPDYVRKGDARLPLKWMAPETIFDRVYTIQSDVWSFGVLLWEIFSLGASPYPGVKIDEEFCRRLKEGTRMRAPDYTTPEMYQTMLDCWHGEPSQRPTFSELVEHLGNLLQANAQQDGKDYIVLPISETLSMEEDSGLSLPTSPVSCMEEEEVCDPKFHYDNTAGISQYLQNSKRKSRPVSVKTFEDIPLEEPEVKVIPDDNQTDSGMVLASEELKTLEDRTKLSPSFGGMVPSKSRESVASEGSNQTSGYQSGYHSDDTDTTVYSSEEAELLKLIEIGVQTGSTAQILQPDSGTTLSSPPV
Summary of the method: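 For IC50, ADP formation after a 30-min 30 °C reaction was detected by ADP-Glo luminescence in duplicate, blank-subtracted and fitted as log inhibitor versus normalised response. The 10 µM single-dose test instead measured remaining ATP (Kinase-Glo Plus) after 40 min at 30 °C with poly(Glu,Tyr) substrate, 10 μM ATP, pH 7.4, 1% DMSO.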

OVCAR-3 = assay: NCI 60 cell panel SRB screen; type: cell-based; conditions: Homo sapiens; for activity at 10 µM: OVCAR-3, single dose 10 μM, read-out: percent cell growth promotion

Work on `Clc1ccc(Nc2nnc(COc3ccccc3)c3ccccc23)cc1` [Compound 17a, N-(4-Chlorophenyl)-4-(phenoxymethyl)phthalazin-1-amine] yielded a GI50 (MCF7; MCF7) of 1.18 µM, an IC (TGI) (MCF7; MCF7, read-out: TGI) of 6.07 µM and an activity at 10 µM (MCF7) of 1.31%. The CC50 (MCF7; MCF7, 5 log dose, 48 h, read-out: LC50 (the source's name)) was 19.8 µM, the GI50 (NCI-H522; NCI-H522, 5 log dose) was 0.35 µM and the IC (TGI) (NCI-H522; NCI-H522, 5 log dose) was 4.04 µM. The CC50 (NCI-H522; NCI-H522, 5 log dose, 48 h, read-out: LC50 (the source's name)) was 16.7 µM, the activity at 10 µM (NCI-H522) was -17.4% and the GI50 (IGROV1; IGROV1, 5 log dose) was 1.14 µM. It also gave an IC (TGI) (IGROV1; IGROV1, 5 log dose) of 6.37 µM, a CC50 (IGROV1; IGROV1, 5 log dose, 48 h, read-out: LC50 (the source's name)) of over 25 µM and an activity at 10 µM (IGROV1) of 16.1%. The GI50 (MDA-MB-435; MDA-MB-435) was 1.01 µM, the IC (TGI) (MDA-MB-435; MDA-MB-435, read-out: TGI) was 5.31 µM and the activity at 10 µM (MDA-MB-435) was -3.33%. It also gave a CC50 (MDA-MB-435; MDA-MB-435, 5 log dose, 48 h, read-out: LC50 (the source's name)) of 16.2 µM, an activity at 10 µM (CAKI-1) of 15.4% and a GI50 (BT-549; BT-549) of 2.05 µM. It also gave an IC (TGI) (BT-549; BT-549, read-out: TGI) of 6.65 µM, an activity at 10 µM (BT-549) of -9.97% and a CC50 (BT-549; BT-549, 5 log dose, 48 h, read-out: LC50 (the source's name)) of 19 µM. The GI50 (MDA-MB 231/ATCC; MDA-MB-231) was 1.28 µM, the IC (TGI) (MDA-MB 231/ATCC; MDA-MB-231, read-out: TGI) was 6.9 µM and the activity at 10 µM (MDA-MB 231/ATCC) was 11.4%. The CC50 (MDA-MB 231/ATCC; MDA-MB-231, MDA-MDA 231/ATCC, 5 log dose, 48 h, read-out: LC50 (the source's name)) was 24.8 µM, the GI50 (K-562; K-562, 5 log dose) was 1.85 µM and the IC (TGI) (K-562; K-562, 5 log dose) was 11.9 µM. The CC50 (K-562; K-562, 5 log dose, 48 h, read-out: LC50 (the source's name)) was over 25 µM, the activity at 10 µM (K-562) was 2.77% and the GI50 (T-47D) was 0.88 µM. The IC (TGI) (T-47D; read-out: TGI) was 8.44 µM, the activity at 10 µM (T-47D) was -5.86% and the CC50 (T-47D; T-47D, 5 log dose, 48 h, read-out: LC50 (the source's name)) was over 25 µM. The GI50 (UACC-257; UACC-257) was 2.54 µM, the IC (TGI) (UACC-257; UACC-257, read-out: TGI) was 5.82 µM and the activity at 10 µM (UACC-257) was -24.9%. It also gave a CC50 (UACC-257; UACC-257, 5 log dose, 48 h, read-out: LC50 (the source's name)) of 13.4 µM, a GI50 (HL-60(TB); 5 log dose) of 3.56 µM and an IC (TGI) (HL-60(TB); 5 log dose) of 11.9 µM. The CC50 (HL-60(TB); 5 log dose, 48 h, read-out: LC50 (the source's name)) was over 25 µM, the activity at 10 µM (HL-60(TB)) was -15.7% and the GI50 (HT29; HT29, 5 log dose) was 0.42 µM. For the same compound, the IC (TGI) (HT29; HT29, 5 log dose) was 4.25 µM, the CC50 (HT29; HT29, 5 log dose, 48 h, read-out: LC50 (the source's name)) was 17.4 µM and the activity at 10 µM (HT29) was 1.32%. The GI50 (MOLT-4; MOLT-4, 5 log dose) was 1.06 µM, the IC (TGI) (MOLT-4; MOLT-4, 5 log dose) was 6.7 µM and the CC50 (MOLT-4; MOLT-4, 5 log dose, 48 h, read-out: LC50 (the source's name)) was over 25 µM. It also gave an activity at 10 µM (MOLT-4) of -32.6%, a GI50 (DU-145; DU-145, 5 log dose) of 2.65 µM and an IC (TGI) (DU-145; DU-145, 5 log dose) of 10.5 µM. For the same compound, the CC50 (DU-145; DU-145, 5 log dose, 48 h, read-out: LC50 (the source's name)) was over 25 µM, the activity at 10 µM (DU-145) was 10.4% and the inhibition at 10 µM (VEGFR-2 tyrosine kinase) was 31%. It also gave a GI50 (OVCAR-3; OVCAR-3, 5 log dose) of 2.87 µM, an IC (TGI) (OVCAR-3; OVCAR-3, 5 log dose) of 9.8 µM and a CC50 (OVCAR-3; OVCAR-3, 5 log dose, 48 h, read-out: LC50 (the source's name)) of over 25 µM. The activity at 10 µM (OVCAR-3) was -35.1%.
Compound `O=C(Nc1ccc(Nc2nncc3ccccc23)cc1)c1ccc(Cl)cc1` [Compound 5b, 4-Chloro-N-(4-(phthalazin-1-ylamino)phenyl)benzamide] has an activity at 10 µM (MCF7) of 93%, an activity at 10 µM (NCI-H522) of 96.8% and an activity at 10 µM (IGROV1) of 102%. The activity at 10 µM (MDA-MB-435) was 103%, the activity at 10 µM (CAKI-1) was 94.6% and the activity at 10 µM (BT-549) was 107%. It also gave an activity at 10 µM (MDA-MB 231/ATCC) of 93.3%, an activity at 10 µM (K-562) of 102% and an activity at 10 µM (T-47D) of 97.6%. It also gave an activity at 10 µM (UACC-257) of 93%, an activity at 10 µM (HL-60(TB)) of 103% and an activity at 10 µM (HT29) of 104%. It also gave an activity at 10 µM (MOLT-4) of 97.3%, an activity at 10 µM (DU-145) of 114% and an inhibition at 10 µM (VEGFR-2 tyrosine kinase) of 8%. It also gave an activity at 10 µM (OVCAR-3) of 101%.
